Source: patent US20020193320A1, “C-2 modified erythromycin derivatives” (priority 1999, published 2002)

Key:
Experiment in all cases: In vitro antibacterial activity, agar dilution MIC
Type in all cases: cell-based
[1] = test system: Staphylococcus aureus CMX 553; set-up: unit not given here; conditions: code FF, BHI agar, 35-37° C., 20 to 24 hours
Procedure: (§1) Representative compounds of the present invention were assayed in vitro for antibacterial activity as follows: Twelve petri dishes containing successive aqueous dilutions of the test compound mixed with 10 mL of sterilized Brain Heart Infusion (BHI) agar (Difco 0418-01-5) were prepared. Each plate was inoculated with 1:100 (or 1:10 for slow-growing strains, such as Micrococcus and Streptococcus) dilutions of up to 32 different microorganisms, using a Steers replicator block. The inoculated plates were incubated at 35-37° C. for 20 to 24 hours. In addition, a control plate, using BHI agar containing no test compound, was prepared and incubated at the beginning and end of each test.
(§2) An additional plate containing a compound having known susceptibility patterns for the organisms being tested and belonging to the same antibiotic class as the test compound was also prepared and incubated as a further control, as well as to provide test-to-test comparability.
(§3) After incubation, each plate was visually inspected. The minimum inhibitory concentration (MIC) was defined as the lowest concentration of drug yielding no growth, a slight haze, or sparsely isolated colonies on the inoculum spot as compared to the growth control.

[2] = test system: Staphylococcus aureus 1775; set-up: unit not given here; conditions: code GG, BHI agar, 35-37° C., 20 to 24 hours
Procedure: as §1, §2, §3

[3] = test system: Enterococcus faecium ATCC X043; set-up: unit not given here; conditions: code II, BHI agar, 35-37° C., 20 to 24 hours
Procedure: as §1, §2, §3

[4] = test system: Streptococcus pyogenes PIU 2548; set-up: unit not given here; conditions: code NN, BHI agar, 35-37° C., 20 to 24 hours
Procedure: as §1, §2, §3

[5] = test system: Staphylococcus aureus A-5177; set-up: unit not given here; conditions: code BB, BHI agar, 35-37° C., 20 to 24 hours
Procedure: as §1, §2, §3

[6] = test system: Staphylococcus aureus ATCC 6538P; set-up: unit not given here; conditions: code AA, BHI agar, 35-37° C., 20 to 24 hours
Procedure: as §1, §2, §3

[7] = test system: Streptococcus pyogenes 930; set-up: unit not given here; conditions: code MM, BHI agar, 35-37° C., 20 to 24 hours
Procedure: as §1, §2, §3

[8] = test system: Streptococcus bovis A-5169; set-up: unit not given here; conditions: code JJ, BHI agar, 35-37° C., 20 to 24 hours
Procedure: as §1, §2, §3

[9] = test system: Escherichia coli JUHL; set-up: unit not given here; conditions: code QQ, BHI agar, 35-37° C., 20 to 24 hours
Procedure: as §1, §2, §3

[10] = test system: Nocardia Asteroides ATCC 99700; set-up: unit not given here; conditions: code VV, BHI agar, 35-37° C., 20 to 24 hours
Procedure: as §1, §2, §3

[11] = test system: Micrococcus luteus ATCC 9341; set-up: unit not given here; conditions: code OO, BHI agar, 35-37° C., 20 to 24 hours
Procedure: as §1, §2, §3

[12] = test system: Staphylococcus epidermidis 3519; set-up: unit not given here; conditions: code HH, BHI agar, 35-37° C., 20 to 24 hours
Procedure: as §1, §2, §3

[13] = test system: Mycobacterium smegmatis ATCC 114; set-up: unit not given here; conditions: code UU, BHI agar, 35-37° C., 20 to 24 hours
Procedure: as §1, §2, §3

[14] = test system: Escherichia coli DC-2; set-up: unit not given here; conditions: code SS, BHI agar, 35-37° C., 20 to 24 hours
Procedure: as §1, §2, §3

[15] = test system: Staphylococcus aureus CMX 642A; set-up: unit not given here; conditions: code DD, BHI agar, 35-37° C., 20 to 24 hours
Procedure: as §1, §2, §3

[16] = test system: Escherichia coli SS; set-up: unit not given here; conditions: code RR, BHI agar, 35-37° C., 20 to 24 hours
Procedure: as §1, §2, §3

[17] = test system: Candida albicans CCH 442; set-up: unit not given here; conditions: code TT, BHI agar, 35-37° C., 20 to 24 hours
Procedure: as §1, §2, §3

[18] = test system: Staphylococcus aureus NCTC 10649M; set-up: unit not given here; conditions: code EE, BHI agar, 35-37° C., 20 to 24 hours
Procedure: as §1, §2, §3

[19] = test system: Staphylococcus aureus A-5278; set-up: unit not given here; conditions: code CC, BHI agar, 35-37° C., 20 to 24 hours
Procedure: as §1, §2, §3

[20] = test system: Streptococcus agalactiae CMX 508; set-up: unit not given here; conditions: code KK, BHI agar, 35-37° C., 20 to 24 hours
Procedure: as §1, §2, §3

[21] = test system: Streptococcus pyogenes EES61; conditions: code LL, BHI agar, 35-37° C., 20 to 24 hours
Procedure: as §1, §2, §3

[22] = test system: Streptococcus Pneumonia GYR 1171; conditions: code YY, 35-37° C., 20 to 24 hours
Procedure: as §1, §2, §3

[23] = test system: Streptococcus Pneumonia 5649; conditions: code ZZA (code list: ZA), 35-37° C., 20 to 24 hours
Procedure: as §1, §2, §3

[24] = test system: Streptococcus Pneumonia 5979; conditions: code ZZ, 35-37° C., 20 to 24 hours
Procedure: as §1, §2, §3

[25] = test system: Micrococcus luteus ATCC 4698; conditions: code PP, BHI agar, 35-37° C., 20 to 24 hours
Procedure: as §1, §2, §3

[26] = test system: Streptococcus Pneumonia ATCC 6303; conditions: code XX, 35-37° C., 20 to 24 hours
Procedure: as §1, §2, §3

[27] = test system: Haemophilis Influenzae DILL AMP R; conditions: code WW, 35-37° C., 20 to 24 hours
Procedure: as §1, §2, §3

| Structure (SMILES) | Antibacterial Activity (MIC) [1] | Antibacterial Activity (MIC) [2] | Antibacterial Activity (MIC) [3] | Antibacterial Activity (MIC) [4] | Antibacterial Activity (MIC) [5] | Antibacterial Activity (MIC) [6] | Antibacterial Activity (MIC) [7] | Antibacterial Activity (MIC) [8] | Antibacterial Activity (MIC) [9] | Antibacterial Activity (MIC) [10] | Antibacterial Activity (MIC) [11] | Antibacterial Activity (MIC) [12] | Antibacterial Activity (MIC) [13] | Antibacterial Activity (MIC) [14] | Antibacterial Activity (MIC) [15] | Antibacterial Activity (MIC) [16] | Antibacterial Activity (MIC) [17] | Antibacterial Activity (MIC) [18] | Antibacterial Activity (MIC) [19] | Antibacterial Activity (MIC) [20] | other results |
| --- | --- | --- | --- | --- | --- | --- | --- | --- | --- | --- | --- | --- | --- | --- | --- | --- | --- | --- | --- | --- | --- |
| CCC1OC(=O)C(C)(O)C(=O)C(C)C(OC2OC(C)CC(N(C)C)C2O)C(C)(OCC(O)CO)CC(C)C(=O)C(C)C2NC(=O)OC12C (stereo not drawn) [Example 3, Compound of formula (II): R^a is —CH2CH(OH)CH2OH, R^b is H, Y and Z together are O, T is —NH—, R is —OH] | >100 | >100 | 100 | >100 | >100 | >100 | >100 | 50 | >100 | >100 | 50 | >100 | >100 | >100 | >100 | 100 | >100 | >100 | >100 | 50 | Antibacterial Activity (MIC) [21]: 100; Antibacterial Activity (MIC) [22]: 32; Antibacterial Activity (MIC) [23]: >128; Antibacterial Activity (MIC) [24]: >128; Antibacterial Activity (MIC) [25]: >100; Antibacterial Activity (MIC) [26]: 64; Antibacterial Activity (MIC) [27]: >128 |
| C#CCOC1(C)CC(C)C(=O)C(C)C2NC(=O)OC2(C)C(CC)OC(=O)C(C)(CC=Cc2ccccc2)C(=O)C(C)C1OC1OC(C)CC(N(C)C)C1O (stereo not drawn) [Example 9, Compound of formula (II): R^a is —CH2C≡CH, R^b is H, Y and Z together are O, T is —NH—, R is —CH2CH≡CH—(phenyl)] | 3.1 | 100 | 3.1 | 3.1 | 3.1 | 3.1 | 50 | 0.78 | >100 | 1.56 | 1.56 | 6.2 | 12.5 | >100 | 3.1 | 6.2 | >100 | 12.5 | >100 | 1.56 | Antibacterial Activity (MIC) [21]: 1.56; Antibacterial Activity (MIC) [22]: 1; Antibacterial Activity (MIC) [23]: 8; Antibacterial Activity (MIC) [24]: 64; Antibacterial Activity (MIC) [25]: 3.1; Antibacterial Activity (MIC) [26]: 1; Antibacterial Activity (MIC) [27]: >64 |
